According to patent US5182386A (priority 1991, dated 1993):

How the values were obtained:
GABA receptor = conditions: Tallman et al., 1978; cited from earlier work
GABAa receptor = GABAa receptor (benzodiazepine site) binding, displacement of 3H-RO15-1788 [3H-Flumazenil]; conditions: rat cortical tissue; 0.5 nM 3H-RO15-1788; 30 min at 4° C.
Method: Assays are carried out as described in Thomas and Tallman (J. Bio. Chem. 156: 9838-9842, J. Neurosci. 3:433-440, 1983). Rat cortical tissue is dissected and homogenized in 25 volumes (w/v) of 0.05M Tris HCl buffer (pH 7.4 at 4° C.). The tissue homogenate is centrifuged in the cold (4° ) at 20,000×g for 20'. The supernatant is decanted and the pellet is rehomogenized in the same volume of buffer and again centrifuged at 20,000×g. The supernatant is decanted and the pellet is frozen at -20° C. overnight. The pellet is then thawed and rehomogenized in 25 volume (original wt/vol) of buffer and the procedure is carried out twice. The pellet is finally resuspended in 50 volumes (w/vol of 0.05M Tris HCl buffer (pH 7.4 at […]).
Incubations contain […] of tissue homogenate, […] of radioligand 0.5 nM (^3 H-RO15-1788 [^3 H-Flumazenil] specific activity 80 Ci/mmol), drug or blocker and buffer to a total volume of […]. Incubations are carried for 30 min at 4° C. then are rapidly filtered through GFB filters to separate free and bound ligand. Filters are washed twice with fresh 0.05M Tris HCl buffer (pH 7.4 at 4° C. ) and counted in a liquid scintillation counter. […] diazepam is added to some tubes to determine nonspecific binding. Data are collected in triplicate determinations, averaged and % inhibition of total specific binding is calculated. Total Specific Binding=Total-Nonspecific. In some cases, the amounts of unlabeled drugs is varied and total displacement curves of binding are carried out. Data are converted to a form for the calculation of IC50 and Hill Coefficient (nH).

Compound: CN1CCc2cc3c(cc2C1C1OC(=O)c2c1ccc1c2OCO1)OCO3 (single isomer, unassigned; (-)) [(-) bicuculline]
- block of enhancement of benzodiazepine binding by GABA agonists (GABA receptor): much less active

Compound: COc1cccc(-c2nc3c[nH]c4ccccc4n-3c2=O)c1 [Compound 3, 2-(3-Methoxyphenyl)-imidazo-[1,2-a]-quinoxalin-1(5H)-one]
- IC50 (GABAa receptor): 0.07 µM

Compound: COc1ccc(-c2nc3c[nH]c4ccccc4n-3c2=O)cc1 [Compound 1, 2-(4-methoxyphenyl)-imidazo-[1,2-a]-quinoxalin-1(5H)-one]
- IC50 (GABAa receptor): 0.033 µM

Compound: O=c1c(-c2ccccc2)nc2c[nH]c3ccccc3n1-2 [Compound 2, 2-Phenyl-imidazo-[1,2-a]-quinoxalin-1(5H)-one]
- IC50 (GABAa receptor): 0.033 µM

Compound: CN1CCc2cc3c(cc2C1C1OC(=O)c2c1ccc1c2OCO1)OCO3 (single isomer, unassigned; (+)) [(+) bicuculline]
- block of enhancement of benzodiazepine binding by GABA agonists (GABA receptor): blocked
